These results are taken from publication PMC10298512, “Synthesis and Anticancer Evaluation of Novel 7-Aza-Coumarine-3-Carboxamides” (International Journal of Molecular Sciences, 2023).

Read-outs that look alike come from different tables or passages of the source.

The test system of one data set is M-HeLa. Kind of data set: MTT cytotoxicity test, M-HeLa cells. The conditions noted are these: 24 h incubation, tested at 1–100 µM, three independent experiments, read-out: IC50 (µM) Cancer Cell Lines M-HeLa. The class given is cell-based, human.
The test system of another data set is HuTu 80. Put plainly: MTT cytotoxicity test, HuTu 80 cells. The class given is cell-based, human. The settings on record: for IC50: MTT test, 24 h incubation, tested at 1–100 µM, three independent experiments, read-out: IC50 (µM) Cancer Cell Lines HuTu 80; for selectivity index, SI = IC50(Chang liver)/IC50(HuTu 80): normal Chang liver vs HuTu 80.
For another data set, the system named is Chang liver. Put plainly: MTT cytotoxicity test, normal Chang liver cells. The class given is cell-based, human. The settings on record: 24 h incubation, tested at 1–100 µM, three independent experiments, read-out: IC50 (µM) Normal Cell Lines Chang Liver.

The molecule `Cc1ncc(CO)c2cc(C(=O)O)c(=O)oc12` [3a, 5-(hydroxymethyl)-8-methyl-2-oxo-2H-pyrano[2,3-c]pyridin-7-ium-3-carboxylate] registered a melting point of 249 to 250 °C. Also, in the data set on M-HeLa (Homo sapiens, M-HeLa), the IC50 came to 75.5 ± 6 µM. Further, the IC50 in the data set on HuTu 80 (Homo sapiens, HuTu80) stood at 57.6 ± 4.6 µM. The half-maximal inhibitory concentration (IC50) in the data set on Chang liver (Homo sapiens, Chang liver) is 58 ± 4.7 µM.

The molecule `Cc1ncc(COP(=O)(O)O)c2cc(C(=O)O)c(=O)oc12` [3b, 8-methyl-2-oxo-5-((phosphonooxy)methyl)-2H-pyrano[2,3-c]pyridin-7-ium-3-carboxylate] gave a melting point of over 300 °C. In addition, in the data set on M-HeLa (Homo sapiens, M-HeLa), the IC50 came out at 70.6 ± 5.7 µM. Further, the IC50 in the data set with HuTu 80 (Homo sapiens, HuTu80) is 60.5 ± 5.3 µM. In addition, the IC50 with Chang liver (Homo sapiens, Chang liver) was 70 ± 5.6 µM.

Take `O=c1[nH]cc(F)c(=O)[nH]1` [5-fluorouracil, reference compound]: the IC50 came out at 62 ± 4.7 µM in the data set on M-HeLa (Homo sapiens, M-HeLa); 65.2 ± 5.4 µM in the data set with HuTu 80 (Homo sapiens, HuTu80); 86.3 ± 6.5 µM with Chang liver (Homo sapiens, Chang liver).

`Cc1ncc(CCl)c2cc(C(=O)Nc3ccccc3)c(=O)oc12` [7a, 5-(Chloromethyl)-8-methyl-2-oxo-N-phenyl-2aH-pyrano[2,3-c]pyridine-3-carboxamide]: the melting point was 240 °C (dec.). Further, the half-maximal inhibitory concentration (IC50) in the data set with M-HeLa (Homo sapiens, M-HeLa) was over 100 µM. The IC50 with HuTu 80 (Homo sapiens, HuTu80) is 59.4 ± 4.8 µM. Moreover, the IC50 in the data set on Chang liver (Homo sapiens, Chang liver) was determined as 56.6 ± 4.5 µM.

Turning to `COc1ccccc1NC(=O)c1cc2c(CCl)cnc(C)c2oc1=O` [7b, 5-(Chloromethyl)-N-(2-methoxyphenyl)-8-methyl-2-oxo-2H-pyrano[2,3-c]pyridine-3-carboxamide], the melting point lay in the range of 214 to 215 °C. The IC50 in the data set with M-HeLa (Homo sapiens, M-HeLa) is 84.4 ± 5.5 µM. The IC50 in the data set with HuTu 80 (Homo sapiens, HuTu80) is 55.3 ± 3.9 µM. The IC50 with Chang liver (Homo sapiens, Chang liver) was found to be 46 ± 3.2 µM.

Turning to `Cc1ncc(CCl)c2cc(C(=O)Nc3ccc([N+](=O)[O-])cc3Br)c(=O)oc12` [7c, N-(2-Bromo-4-nitrophenyl)-5-(chloromethyl)-8-methyl-2-oxo-2H-pyrano[2,3-c]pyridine-3-carboxamide], the melting point is 240 °C (dec.). Also, the IC50 in the data set with M-HeLa (Homo sapiens, M-HeLa) worked out at 67.4 ± 4.6 µM. Also, the IC50 in the data set on HuTu 80 (Homo sapiens, HuTu80) is 43 ± 3.5 µM. Also, the concentration for half-maximal inhibition (IC50) with Chang liver (Homo sapiens, Chang liver) worked out at 89.4 ± 6.3 µM.

In the case of `Cc1ncc(CCl)c2cc(C(=O)Nc3ccccn3)c(=O)oc12` [7d, 5-(Chloromethyl)-8-methyl-2-oxo-N-(pyridin-2-yl)-2H-pyrano[2,3-c]pyridine-3-carboxamide], the melting point is over 300 °C. Also, the IC50 with M-HeLa (Homo sapiens, M-HeLa) was determined as 84 ± 5.9 µM. Further, in the data set with HuTu 80 (Homo sapiens, HuTu80), the IC50 turned out to be 62 ± 4.3 µM. The IC50 in the data set on Chang liver (Homo sapiens, Chang liver) is 88 ± 6.2 µM.

In turn, `Cc1ncc(CCl)c2cc(C(=O)Nc3cccnc3N)c(=O)oc12` [7e, N-(2-Aminopyridin-3-yl)-5-(chloromethyl)-8-methyl-2-oxo-2H-pyrano[2,3-c]pyridine-3-carboxamide] returned a melting point of over 300 °C. Moreover, in the data set on M-HeLa (Homo sapiens, M-HeLa), the IC50 was found to be 54.3 ± 3.6 µM. In addition, the IC50 in the data set on HuTu 80 (Homo sapiens, HuTu80) amounted to 72 ± 5.2 µM. The IC50 with Chang liver (Homo sapiens, Chang liver) was determined as 55.3 ± 3.7 µM.

With `Cc1ncc(CCl)c2cc(C(=O)N(c3ccccc3)c3ccccc3)c(=O)oc12.Cl` [7f, 5-(Chloromethyl)-3-(diphenylcarbamoyl)-8-methyl-2-oxo-2H-pyrano[2,3-c]pyridin-7-ium chloride], the melting point lay in the range of 201 to 205 °C. In the data set on M-HeLa (Homo sapiens, M-HeLa), the IC50 was determined as 32 ± 2.2 µM. Besides, the 50% inhibitory concentration (IC50) in the data set with HuTu 80 (Homo sapiens, HuTu80) was 17.4 ± 1.3 µM. In the data set on Chang liver (Homo sapiens, Chang liver), the IC50 turned out to be 48.4 ± 3.3 µM.

With `C#CCNC(=O)c1cc2c(CCl)cnc(C)c2oc1=O` [7g, 5-(Chloromethyl)-8-methyl-2-oxo-N-(prop-2-yn-1-yl)-2H-pyrano[2,3-c]pyridine-3-carboxamide], the melting point is 161 °C (dec.). Further, the IC50 with M-HeLa (Homo sapiens, M-HeLa) was 14.1 ± 1.2 µM. Further, the IC50 in the data set with HuTu 80 (Homo sapiens, HuTu80) worked out at 11.2 ± 0.9 µM. In the data set on Chang liver (Homo sapiens, Chang liver), the IC50 came to 13.9 ± 0.3 µM.

Consider `Cc1ncc(CCl)c2cc(C(=O)Nc3ccc(S(N)(=O)=O)cc3)c(=O)oc12` [7h, 5-(Chloromethyl)-8-methyl-2-oxo-N-(4-sulfamoylphenyl)-2H-pyrano[2,3-c]pyridine-3-carboxamide], for which the melting point was over 300 °C. In addition, in the data set with M-HeLa (Homo sapiens, M-HeLa), the IC50 is 14.8 ± 1.3 µM. Besides, the IC50 in the data set with HuTu 80 (Homo sapiens, HuTu80) is 2.9 ± 0.2 µM. In the data set on HuTu 80, the “selectivity index, SI = IC50(Chang liver)/IC50(HuTu 80)” value (from here on “selectivity index”) turned out to be 10. For the same molecule, the IC50 with Chang liver (Homo sapiens, Chang liver) was found to be 29.8 ± 2 µM.

Turning to `CC(=O)NS(=O)(=O)c1ccc(NC(=O)c2cc3c(CCl)cnc(C)c3oc2=O)cc1` [7i, N-(4-(N-Acetylsulfamoyl)phenyl)-5-(chloromethyl)-8-methyl-2-oxo-2H-pyrano[2,3-c]pyridine-3-carboxamide], the melting point is over 300 °C. Also, the IC50 in the data set on M-HeLa (Homo sapiens, M-HeLa) worked out at 77.8 ± 5.4 µM. Moreover, the IC50 with HuTu 80 (Homo sapiens, HuTu80) was 31 ± 1.9 µM. Further, the IC50 with Chang liver (Homo sapiens, Chang liver) turned out to be 116 ± 8.1 µM.

Molecule `Cc1ncc(CCl)c2cc(C(=O)Nc3ccc(S(=O)(=O)Nc4ncccn4)cc3)c(=O)oc12` [7j, 5-(Chloromethyl)-8-methyl-2-oxo-N-(4-(N-(pyrimidin-2-yl)sulfamoyl)phenyl)-2H-pyrano[2,3-c]pyridine-3-carboxamide] displayed a melting point of over 300 °C. In the data set with M-HeLa (Homo sapiens, M-HeLa), the IC50 stood at 73.4 ± 5.2 µM. For the same molecule, in the data set on HuTu 80 (Homo sapiens, HuTu80), the IC50 is 32 ± 2.1 µM. For the same molecule, the IC50 in the data set on Chang liver (Homo sapiens, Chang liver) is 73 ± 5.5 µM.

Regarding `Cc1ccnc(NS(=O)(=O)c2ccc(NC(=O)c3cc4c(CCl)cnc(C)c4oc3=O)cc2)n1` [7k, 5-(Chloromethyl)-8-methyl-N-(4-(N-(4-methylpyrimidin-2-yl)sulfamoyl)phenyl)-2-oxo-2H-pyrano[2,3-c]pyridine-3-carboxamide], the melting point is over 300 °C. The concentration for half-maximal inhibition (IC50) with M-HeLa (Homo sapiens, M-HeLa) was determined as 47 ± 3.1 µM. For the same molecule, in the data set with HuTu 80 (Homo sapiens, HuTu80), the IC50 came to 18.1 ± 1.4 µM. The IC50 with Chang liver (Homo sapiens, Chang liver) came out at 61.3 ± 4.2 µM.

`Cc1cc(C)nc(NS(=O)(=O)c2ccc(NC(=O)c3cc4c(CCl)cnc(C)c4oc3=O)cc2)n1` [7l, 5-(Chloromethyl)-N-(4-(N-(4,6-dimethylpyrimidin-2-yl)sulfamoyl)phenyl)-8-methyl-2-oxo-2H-pyrano[2,3-c]pyridine-3-carboxamide] registered a melting point of over 300 °C. In addition, the IC50 with M-HeLa (Homo sapiens, M-HeLa) came out at 62.4 ± 4.4 µM. For the same molecule, in the data set on HuTu 80 (Homo sapiens, HuTu80), the half-inhibitory concentration (IC50) came out at 52.1 ± 3.4 µM. Besides, in the data set on Chang liver (Homo sapiens, Chang liver), the IC50 is 126 ± 8.8 µM.

With `Cc1ncc(CCl)c2cc(C(=O)NNC(=O)c3ccccc3)c(=O)oc12` [7m, N′-Benzoyl-5-(chloromethyl)-8-methyl-2-oxo-2H-pyrano[2,3-c]pyridine-3-carbohydrazide], the melting point was 240 °C (dec.). In addition, the IC50 in the data set on M-HeLa (Homo sapiens, M-HeLa) was determined as 61.1 ± 4.2 µM. The IC50 with HuTu 80 (Homo sapiens, HuTu80) stood at 49.7 ± 3.5 µM. Moreover, the IC50 in the data set on Chang liver (Homo sapiens, Chang liver) stood at 62.4 ± 4.9 µM.

In turn, `Cc1ncc(CCl)c2cc(C(=O)NNC(=O)c3ccncc3)c(=O)oc12` [7n, 5-(Chloromethyl)-N′-isonicotinoyl-8-methyl-2-oxo-2H-pyrano[2,3-c]pyridine-3-carbohydrazide] displayed a melting point of over 300 °C. Also, in the data set with M-HeLa (Homo sapiens, M-HeLa), the IC50 amounted to 93.1 ± 6.6 µM. Further, the IC50 in the data set on HuTu 80 (Homo sapiens, HuTu80) came to 61.2 ± 4.2 µM. Further, the IC50 in the data set on Chang liver (Homo sapiens, Chang liver) worked out at 64.1 ± 4.8 µM.

For `Cc1ncc(CCl)c2cc(C(=O)Nc3ccccc3NC(=O)c3cc4c(CCl)cnc(C)c4oc3=O)c(=O)oc12` [7o, N,N′-(1,2-Phenylene)bis(5-(chloromethyl)-8-methyl-2-oxo-2H-pyrano[2,3-c]pyridine-3-carboxamide)], the melting point is 239 to 241 °C. Besides, the IC50 in the data set on M-HeLa (Homo sapiens, M-HeLa) worked out at 22.5 ± 1.8 µM. Further, the IC50 in the data set on HuTu 80 (Homo sapiens, HuTu80) was 3.1 ± 0.2 µM. The “selectivity index” value in the data set with HuTu 80 is reported as 3.8. The 50% inhibitory concentration (IC50) in the data set on Chang liver (Homo sapiens, Chang liver) turned out to be 11.8 ± 0.9 µM.

With `Cc1ncc(CCl)c2cc(C(=O)Nc3cccc(NC(=O)c4cc5c(CCl)cnc(C)c5oc4=O)c3)c(=O)oc12` [7p, N,N′-(1,3-Phenylene)bis(5-(chloromethyl)-8-methyl-2-oxo-2H-pyrano[2,3-c]pyridine-3-carboxamide)], the melting point was 274 °C (dec.). For the same molecule, the IC50 in the data set on M-HeLa (Homo sapiens, M-HeLa) was found to be 63 ± 4.4 µM. In the data set with HuTu 80 (Homo sapiens, HuTu80), the IC50 came out at 81.5 ± 5.7 µM. The half-inhibitory concentration (IC50) in the data set on Chang liver (Homo sapiens, Chang liver) came out at 37 ± 2.6 µM.

`Cc1ncc(CO)c2cc(C(=O)O)c(=O)oc12.NC1CCCCC1` [8b, Cyclohexanaminium 5-(hydroxymethyl)-8-methyl-2-oxo-2H-pyrano[2,3-c]pyridine-3-carboxylate]: the IC50 in the data set on M-HeLa came out at 70.4 ± 5.7 µM; with HuTu 80 it was 78.2 ± 6.3 µM; in the data set on Chang liver, 81 ± 6.5 µM.

`Cc1ncc(CO)c2cc(C(=O)O)c(=O)oc12.Cc1ncc(CO)c2cc(C(=O)O)c(=O)oc12.Nc1cccc(N)n1` [8d, Pyridine-2,6-diaminium 5-(hydroxymethyl)-8-methyl-2-oxo-2H-pyrano[2,3-c]pyridine-3-carboxylate]: the figures for the half-inhibitory concentration (IC50) in the data set with M-HeLa, with HuTu 80 and in the data set on Chang liver were over 100 µM, 88.4 ± 7 µM and 64.1 ± 5.1 µM, respectively.

Turning to `Cc1ncc(COP(=O)(O)O)c2cc(C(=O)O)c(=O)oc12.Nc1ccccn1` [8e, Pyridin-2-aminium 8-methyl-2-oxo-5-((phosphonooxy)methyl)-2H-pyrano[2,3-c]pyridine-3-carboxylate], the IC50 with M-HeLa turned out to be 99.5 ± 7.1 µM; in the data set on HuTu 80, 59 ± 4.1 µM; in the data set on Chang liver, 78.4 ± 6.3 µM.

On to `COc1cccc2c1C(=O)c1c(O)c3c(c(O)c1C2=O)C[C@@](O)(C(=O)CO)C[C@@H]3O[C@H]1C[C@H](N)[C@H](O)[C@H](C)O1` [Doxorubicin, reference compound], for which the IC50 was determined as 3 ± 0.2 µM in the data set on M-HeLa (Homo sapiens, M-HeLa); 3 ± 0.2 µM in the data set on HuTu 80 (Homo sapiens, HuTu80); 3 ± 0.1 µM with Chang liver (Homo sapiens, Chang liver). Also, the “selectivity index” value with HuTu 80 came to 1.

Take `Cc1ncc(CO)c2c1OC1=C(C(=O)CC(C)(C)C1)C2C1=C(O)CC(C)(C)CC1=O` (stereo not shown) [compound 4, 5-(2-hydroxy-4,4-dimethyl-6-oxocyclohex-1-en-1-yl)-4-(hydroxymethyl)-1,8,8-trimethyl-5,7,8,9-tetrahydro-6H-chromeno[2,3-c]pyridin-6-one]: the melting point was 219 to 224 °C.
